Assays:
[1] = rat, in vivo
[2] = Percutaneous absorption and excretion (Experiment 8); details: after removing the unabsorbed ointment 6 hours after application

## CC(C(=O)O)c1ccc2c(c1)Cc1cccnc1O2 (centres unmarked) [pranoprofen, Pranoprofen]
[1]
  excretion route: excreted mainly into urine and feces
[2]
  half-life of blood level: about 5 hours
